Series [1] in a line: In vivo retention and biodistribution after MN administration in mice bearing B16F10 melanoma. The arrangement: species or system mouse. The conditions noted are these: for Cy5.5 signal around the melanoma site (retention): MN administration, imaging day 1, day 3, day 5. The procedure:
HA-NPs formulation with conjugated 1-MT and encapsulated aPD1 can improve their physicochemical properties. Therefore, the in vivo kinetics of free aPD1/1-MT and NPs following MN administration were evaluated in the mice model bearing B16F10 melanoma. The drug retention capability was tested at the tumor site after the MN administration. In vivo […] imaging was conducted at day 1, day 3 and day 5 post injection of the MN loaded with aPD1 and Cy5.5-1-MT-HA or free Cy5.5-1-MT. […] A similar pattern was observed compared to the biodistribution at the tumor site and other organs in the control group. […] The sustained high concentrations of the drugs within tumor regions as well as in peripheral circulation would enhance the immune system capability to treat not only primary tumor but also metastatic tumors in the body.
For the fluorescent NPs, Cyanine5.5 NHS ester (Lumiprobe, Cy5.5) was covalently coupled to the primary amines of the aPD1 and 1-MT. The Cy5.5 was dissolved in anhydrous DMSO immediately before use, at a concentration of 10 mg/ml. Cy5.5 and 1-MT reacted at optimal ratio of 5:1. For the conjugation with aPD1, 40 μg Cy5.5 per mg of antibody was mixed immediately. The tube was wrapped in foil and incubated at room temperature for 1 hour. The unreacted Cy5.5 was removed and the aPD1 was exchanged by gel filtration using Sephadex G-25M.

Another series concerns restriction enzyme HhaI. Briefly: Digestion of DNCs by restriction enzyme HhaI, gel electrophoresis. The note with it: treated with HhaI. The class given is biochemical. The procedure: Release studies were performed at 37° C. with constant agitation in PBS+10% fetal ovine serum. PBS, MMP-9 (500 ng/mL, Sigma) or Lipase (10 000 U, Sigma) were added to samples to study the DNA and antibody release. The DNA disintegration was analyzed by agarose gel electrophoresis using 1% (w/v) agarose gel and the antibody release was determined by IgG total ELISA kit (eBioscience).
Two different control DNCs (cDNC) with a non-specific sequence were synthesized (Table 1) to verify the design.
As shown in agarose gels (FIG. 7), without HhaI treatment, these cDNCs cannot migrate in the gel as DNCs.

On to `Cn1cc(CC(N)C(=O)O)c2ccccc21` (racemic) [1-MT, 1-methyl-DL-tryptophan], for which, in series [1] (Cy5.5-labeled 1-MT after MN administration), the “biodistribution in the tumor and the major organs” value is “highest accumulations in the tumor followed by the lung and liver”. In addition, in series [1], the “Cy5.5 signal around the melanoma site (retention)” value was “quickly cleaved from the patch and eliminated by the body within one day”.
Consider 1-methyl-DL-tryptophan [1-MT], for which, in series [1], the “Cy5.5 signal around the melanoma site (retention)” value was “little signal could be detected”.
On to “cDNC (with cutting sites, without CpG): control DNA nano-cocoon with HhaI cutting sites, without CpG (GTATTATTTCGAAATAATTTGTATTATT; 5' phosphate, chemistry not fully specified; the letters are possibly those of the target site)”, for which, in the series with restriction enzyme HhaI, the “cleavage by HhaI (gel electrophoresis)” value is “readily cut into smaller homogeneous fragments”.

B1: cDNCs (with CpG, without cutting sites): control DNA nano-cocoon with CpG, without HhaI cutting sites (nucleic acid)
chain: ATATGTCGTCGTTCGAACGACGTTATATAACGTCGTTCGAACGACGTTATATGTCGTCGTTCGAACGACGTT
modifications: listed as DNA, chemistry not fully specified; the letters are possibly those of the target site
For the molecule B1, in the series with restriction enzyme HhaI, the “cleavage by HhaI (gel electrophoresis)” value is listed as “resistant to cleavage by HhaI”.

The values above are taken from US11110168B2, “Nanoparticles, controlled-release dosage forms, and methods for delivering an immunotherapeutic agent” (NORTH CAROLINA STATE UNIVERSITY, priority 2016, dated 2021).
